Publication PMC4704483 (2015)

System: (CUG)100, internal fluorescein-labeled (RNA, repeat) CUGCUGCUGCUGCUGCUGCUGCUGCUGCUGCUGCUGCUGCUGCUGCUGCUGCUGCUGCUGCUGCUGCUGCUGCUGCUGCUGCUGCUGCUGCUGCUGCUGCUGCUGCUGCUGCUGCUGCUGCUGCUGCUGCUGCUGCUGCUGCUGCUGCUGCUGCUGCUGCUGCUGCUGCUGCUGCUGCUGCUGCUGCUGCUGCUGCUGCUGCUGCUGCUGCUGCUGCUGCUGCUGCUGCUGCUGCUGCUGCUGCUGCUGCUGCUGCUGCUGCUGCUGCUGCUGCUGCUGCUGCUGCUGCUGCUGCUGCUG
Experiment: fluorescence titration
Conditions: data not shown

K d (salt form not stated) | K d | SMILES
< 1 µmol/L | – | CC[C@H]1OC(=O)[C@H](C)[C@@H](O[C@H]2C[C@@](C)(OC)[C@@H](O)[C@H](C)O2)[C@H](C)[C@@H](O[C@@H]2O[C@H](C)C[C@H](N(C)C)[C@H]2O)[C@](C)(O)C[C@@H](C)C(=O)[C@H](C)[C@@H](O)[C@]1(C)O
– | < 1 µmol/L | NC[C@@H]1O[C@H](O[C@H]2[C@@H](O)[C@H](O[C@@H]3[C@@H](O)[C@H](N)C[C@H](N)[C@H]3O[C@H]3O[C@H](CN)[C@@H](O)[C@H](O)[C@H]3N)O[C@@H]2CO)[C@H](N)[C@@H](O)[C@@H]1O
